A short description of the data set: storage stability of the solid form (polymorphic conversion). The data set is classed as physicochemical.

Take `COc1c(N2C[C@@H]3CCCN[C@@H]3C2)c(F)cc2c(=O)c(C(=O)O)cn(C3CC3)c12.Cl` [Example 1, 1-cyclopropyl-7-([S,S]-2,8-diazabicyclo-[4.3.0]non-8-yl)-6-fluoro-1,4-dihydro-8-methoxy-4-oxo-3-quinolinecarboxylic acid]: the “stability / polymorphic conversion on prolonged storage” value reads like this: (prolonged storage over 3 weeks at ambient conditions) “stable and exhibit no polymorphic conversion”; (prolonged storage over 3 weeks at high humidity accelerated conditions) “stable and exhibit no polymorphic conversion”.

The values are drawn from patent publication US20090170893A1, “NOVEL HYDRATE FORM” (priority 2006, published 2009).
